{"source": "patent US11760978B2", "about": "“Cell culture medium for culturing organoid, culture method, and organoid” (KEIO UNIVERSITY, priority 2016, dated 2023)", "test_system": "epithelial tumor cells derived from colon tumor", "test": "Subculturing (long-term culturing) of epithelial tumor cells derived from colon tumor, Example 4", "format": "cell-based, human", "conditions": "SB202190 10 μM in medium, oxygen 20%", "description": "“WIFNRA medium”, “W^AfmIFNRA medium” and “WENRAS” medium were prepared using the same method as in section (2) of Example 4. In addition, recombinant human R-spondin 1 (R&D Systems) was added to commercially available Advanced DMEM/F-12 medium (Thermo Fisher Scientific) to a final concentration of 1 μg/mL followed by the addition noggin (Peprotech) to a final concentration of 100 ng/mL and A83-01 (Tocris) to a final concentration of 500 nM. Moreover, a medium was prepared in which the Wnt3a-afamin complex prepared in (1) above was added to a final concentration 300 ng/mL, IGF1 (Biolegend) was added to a final concentration of 100 ng/mL, FGF2 (Peprotech) was added to a final concentration of 50 ng/mL, and […] (Sigma-Aldrich) was added to a final concentration of 10 μM (and the resulting medium may be referred to as “W^AfmIFNRAS medium”).\nEpithelial tumor cells were obtained using the same method as in section (2) of Example 1. Next, the epithelial tumor cells were seeded in a 48-well plate together with 25 μL of Matrigel® (BD Bioscience). The “WIFNRA medium”, “W^MmIFNRA medium”, “WENRAS medium” and “WAfmIFNRAS medium” prepared in (2) above were added in 250 μL aliquots to the wells seeded with epithelial tumor cells followed by culturing at 37° C. and oxygen concentration of 20%. The medium was replaced every two days from the start of culturing. […]"}
{"smiles": "Oc1ccc(-c2nc(-c3ccncc3)c(-c3ccc(F)cc3)[nH]2)cc1", "note": "[SB202190, 4-(4-fluorophenyl)-2-(4-hydroxyphenyl)-5-(4-pyridyl)-1H-imidazole]", "values": [{"measurement": "toxicity to epithelial tumor cells", "result": "exhibited toxicity"}]}
